SMILES strings stand for the structures.

The subject of one test is human childhood brain tumor cell lines (PFSK-1). The experiment in a line: Growth inhibitory activity against PFSK-1 cells (WST-8, Cell Counting Kit-8). Type of test: cell-based. Particulars: 3 days incubation with test compound, WST-8 OD 450/630 nm, read-out: IC50 (concentration inhibiting 50% of the cell growth). On the procedure:
The growth inhibitory activity against human childhood brain tumor cell lines (PFSK-1) was measured with WST-8 reagent [2-(2-methoxy-4-nitrophenyl)-3-(4-nitrophenyl)-5-(2,4-disulfophenyl)-2H-tetrazolium monosodium salt, Cell Counting Kit-8™], according to the method described in Tominaga, H. et al., Anal. Commun., 1999, 36, 47-50. Briefly, PFSK-1 was seeded in 96-well microplate at 100 μL/well with Roswell Park Memorial Institute (RPMI) 1640 medium containing 10% fetal bovine serum (FBS), and the cells were incubated in the presence of 5% carbon dioxide (CO2) at 37° C. for 24 hours. 50 μL of each test compound diluted with the medium was added to each well, and then the cells were incubated further for 3 days. After the incubation, 15 μL of Cell Counting Kit-8™ was added to each well, and the cells were incubated for one and half hours. Then, optical density (OD) values at measurement wavelength 450 nm and reference wavelength 630 nm were measured and the difference thereof was calculated. From the calculated difference, the OD value difference (at measurement wavelength 450 nm and reference wavelength 630 nm) of the control well which includes no cell was subtracted to afford cell-growth activity in each well.
The cell growth inhibitory activity of each test compound was calculated by comparing the cell-growth activity with each test compound to the cell-growth activity without any test compound (control), and each IC50 (nM) which is the concentration inhibiting 50% of the cell growth was calculated.
As for `CC1CC(=O)NN=C1c1ccc(OC[C@H]2C[C@@H]2CO)c(Cl)c1F` (relative stereo) [Example 156, 6-(3-Chloro-2-fluoro-4-{[(1S*,2S*)-2-(hydroxymethyl)cyclopropyl]methoxy}phenyl)-5-methyl-4,5-dihydro-2H-pyridazin-3-one], the IC50 came to 2.9 nM.

Staying with this test, now noted: Homo sapiens, 72 h, 3 days incubation with test compound, WST-8 OD 450/630 nm, read-out: IC50 (concentration inhibiting 50% of the cell growth).
Consider `CC1CC(=O)NN=C1c1ccc(OC[C@H]2C[C@H]2CO)c(Cl)c1F` (relative stereo) [Example 154, 6-(3-Chloro-2-fluoro-4-{[(1S*,2R*)-2-(hydroxymethyl)cyclopropyl]methoxy}phenyl)-5-methyl-4,5-dihydro-2H-pyridazin-3-one], for which the IC50 was 2.9 nM. On the same count and under the same terms, as for `Cc1cc(C2=NNC(=O)CC2C)cc(Cl)c1OC[C@H]1C[C@H]1CO` (relative stereo) [Example 155, 6-(3-Chloro-4-{[(1 S*,2R*)-2-(hydroxymethyl)cyclopropyl]methoxy}-5-methylphenyl)-5-methyl-4,5-dihydro-2H-pyridazin-3-one], the figure is 2.2 nM; as for `CC1CC(=O)NN=C1c1cc(Cl)c(OCC(C)(C)O)c(Br)c1` (stereo not shown) [Example 1, 6-[3-bromo-5-chloro-4-(2-hydroxy-2-methylpropoxy)phenyl]-5-methyl-4,5-dihydro-2H-pyridazin-3-one], 1.1 nM; as for `CC1CC(=O)NN=C1c1cc(Cl)c(OCC(C)(C)O)c(Cl)c1` (stereo not shown) [Example 2, 6-[3,5-dichloro-4-(2-hydroxy-2-methylpropoxy)phenyl]-5-methyl-4,5-dihydro-2H-pyridazin-3-one], 1 nM.

As to `CC1CC(=O)NN=C1c1cc(F)c(OCC(C)(C)CO)c(F)c1` (stereo not shown) [Example 6, 6-[3,5-Difluoro-4-(3-hydroxy-2,2-dimethylpropoxy)phenyl]-5-methyl-4,5-dihydro-2H-pyridazin-3-one], the IC50 is 3.8 nM.

With `CC1CC(=O)NN=C1c1cc(F)c(OCC(C)(C)CO)c(Cl)c1` (stereo not shown) [Example 7, 6-[3-chloro-5-fluoro-4-(3-hydroxy-2,2-dimethylpropoxy)phenyl]-5-methyl-4,5-dihydro-2H-pyridazin-3-one], the IC50 worked out at 1 nM. For `Cc1c(OCC(C)(C)CO)ccc(C2=NNC(=O)CC2C)c1F` (stereo not shown) [Example 8, 6-[2-Fluoro-4-(3-hydroxy-2,2-dimethylpropoxy)-3-methylphenyl]-5-methyl-4,5-dihydro-2H-pyridazin-3-one], the IC50 is 7.9 nM. `CC1CC(=O)NN=C1c1ccc(OCC(C)(C)CO)c(F)c1F` (stereo not shown) [Example 9, 6-[2,3-Difluoro-4-(3-hydroxy-2,2-dimethylpropoxy)phenyl]-5-methyl-4,5-dihydro-2H-pyridazin-3-one]: the IC50 turned out to be 4.2 nM.

Turning to `CC1CC(=O)NN=C1c1ccc(OCCCO)c(F)c1F` (stereo not shown) [Example 10, 6-[2,3-Difluoro-4-(3-hydroxypropoxy)phenyl]-5-methyl-4,5-dihydro-2H-pyridazin-3-one], the IC50 was found to be 3.7 nM. Same read-out and setting: for `CC1CC(=O)NN=C1c1cc(F)c(OCCCO)c(Br)c1` (stereo not shown) [Example 11, 6-[3-Bromo-5-fluoro-4-(3-hydroxypropoxy)phenyl]-5-methyl-4,5-dihydro-2H-pyridazin-3-one] the value was 3 nM; for `CC1CC(=O)NN=C1c1ccc(OCCCO)c(Br)c1F` (stereo not shown) [Example 12, 6-[3-bromo-2-fluoro-4-(3-hydroxypropoxy)phenyl]-5-methyl-4,5-dihydro-2H-pyridazin-3-one], 1.9 nM.

Take `Cc1cc(C2=NNC(=O)CC2C)cc(C)c1OCCCO` (stereo not shown) [Example 14, 6-[4-(3-Hydroxypropoxy)-3,5-dimethylphenyl]-5-methyl-4,5-dihydro-2H-pyridazin-3-one]: the IC50 is 8 nM. On the same count and under the same terms, for `CC1CC(=O)NN=C1c1cc(F)c(OCCCO)c(Cl)c1` (stereo not shown) [Example 15, 6-[3-Chloro-5-fluoro-4-(3-hydroxypropoxy)phenyl]-5-methyl-4,5-dihydro-2H-pyridazin-3-one] the value was 4 nM; for `CC1CC(=O)NN=C1c1cc(Cl)c(OCCCO)c(Cl)c1` (stereo not shown) [Example 16, 6-[3,5-Dichloro-4-(3-hydroxypropoxy)phenyl]-5-methyl-4,5-dihydro-2H-pyridazin-3-one], 3.6 nM; for `CC1CC(=O)NN=C1c1ccc(OCCCO)c(Cl)c1F` (stereo not shown) [Example 19, 6-[3-chloro-2-fluoro-4-(3-hydroxypropoxy)phenyl]-5-methyl-4,5-dihydro-2H-pyridazin-3-one], 1.3 nM. The same measure, in the same setting: for `Cc1cc(C2=NNC(=O)CC2C)cc(F)c1OCCCO` (stereo not shown) [Example 20, 6-[3-Fluoro-4-(3-hydroxypropoxy)-5-methylphenyl]-5-methyl-4,5-dihydro-2H-pyridazin-3-one] the value was 4.2 nM; for `Cc1c(OCCCO)ccc(C2=NNC(=O)CC2C)c1F` (stereo not shown) [Example 21, 6-[2-Fluoro-4-(3-hydroxypropoxy)-3-methylphenyl]-5-methyl-4,5-dihydro-2H-pyridazin-3-one], 4 nM; for `Cc1cc(C2=NNC(=O)CC2C)c(F)c(Cl)c1OCCCO` (stereo not shown) [Example 22, 6-[3-chloro-2-fluoro-4-(3-hydroxypropoxy)-5-methylphenyl]-5-methyl-4,5-dihydro-2H-pyridazin-3-one], 1.9 nM. With `CCc1c(OCCCO)ccc(C2=NNC(=O)CC2C)c1F` (stereo not shown) [Example 23, 6-[3-Ethyl-2-fluoro-4-(3-hydroxypropoxy)phenyl]-5-methyl-4,5-dihydro-2H-pyridazin-3-one], the IC50 was found to be 8 nM.

`CC1CC(=O)NN=C1c1ccc(OCC(C)(C)O)c(Br)c1F` (stereo not shown) [Example 24, 6-[3-bromo-2-fluoro-4-(2-hydroxy-2-methylpropoxy)phenyl]-5-methyl-4,5-dihydro-2H-pyridazin-3-one]: the IC50 came out at 1.7 nM. Regarding `CC1CC(=O)NN=C1c1cc(F)c(OCC(C)(C)O)c(Cl)c1` (stereo not shown) [Example 25, 6-[3-Chloro-5-fluoro-4-(2-hydroxy-2-methylpropoxy)phenyl]-5-methyl-4,5-dihydro-2H-pyridazin-3-one], the IC50 came to 2.6 nM. On the same count and under the same terms, for `CC1CC(=O)NN=C1c1cc(F)c(OCC(C)(C)O)c(Br)c1` (stereo not shown) [Example 26, 6-[3-bromo-5-fluoro-4-(2-hydroxy-2-methylpropoxy)phenyl]-5-methyl-4,5-dihydro-2H-pyridazin-3-one] the value was 2 nM; for `Cc1c(OCC(C)(C)O)ccc(C2=NNC(=O)CC2C)c1O` (stereo not shown) [Example 28, 6-[2-Hydroxy-4-(2-hydroxy-2-methylpropoxy)-3-methylphenyl]-5-methyl-4,5-dihydro-2H-pyridazin-3-one], 6.3 nM. Still for that read-out and setting: as for `Cc1cc(C2=NNC(=O)CC2C)cc(Cl)c1OCC(C)(C)O` (stereo not shown) [Example 31, 6-[3-chloro-4-(2-hydroxy-2-methylpropoxy)-5-methylphenyl]-5-methyl-4,5-dihydro-2H-pyridazin-3-one], the figure is 1.1 nM; as for `Cc1cc(C2=NNC(=O)CC2C)cc(C)c1OCC(C)(C)O` (stereo not shown) [Example 32, 6-[4-(2-Hydroxy-2-methylpropoxy)-3,5-dimethylphenyl]-5-methyl-4,5-dihydro-2H-pyridazin-3-one], 4 nM; as for `Cc1cc(C2=NNC(=O)CC2C)cc(F)c1OCC(C)(C)O` (stereo not shown) [Example 33, 6-[3-Fluoro-4-(2-hydroxy-2-methylpropoxy)-5-methylphenyl]-5-methyl-4,5-dihydro-2H-pyridazin-3-one], 5.1 nM. On the same count and under the same terms, as for `Cc1c(OCC(C)(C)O)ccc(C2=NNC(=O)CC2C)c1F` (stereo not shown) [Example 34, 6-[2-Fluoro-4-(2-hydroxy-2-methylpropoxy)-3-methylphenyl]-5-methyl-4,5-dihydro-2H-pyridazin-3-one], the figure is 5.2 nM; as for `Cc1c(F)c(C2=NNC(=O)CC2C)cc(Cl)c1OCC(C)(C)O` (stereo not shown) [Example 35, 6-[5-Chloro-2-fluoro-4-(2-hydroxy-2-methylpropoxy)-3-methylphenyl]-5-methyl-4,5-dihydro-2H-pyridazin-3-one], 6.3 nM. With `Cc1cc(C2=NNC(=O)CC2C)c(F)c(Cl)c1OCC(C)(C)O` (stereo not shown) [Example 36, 6-[3-chloro-2-fluoro-4-(2-hydroxy-2-methylpropoxy)-5-methylphenyl]-5-methyl-4,5-dihydro-2H-pyridazin-3-one], the IC50 worked out at 1 nM. On to `CC1CC(=O)NN=C1c1cc(F)c(OCC(O)(C(F)(F)F)C(F)(F)F)c(Cl)c1` (stereo not shown) [Example 37, 6-{3-Chloro-5-fluoro-4-[3,3,3-trifluoro-2-hydroxy-2-(trifluoromethyl)propoxy]phenyl}-5-methyl-4,5-dihydro-2H-pyridazin-3-one], for which the IC50 came to 8.8 nM. Turning to `CC1CC(=O)NN=C1c1cc(F)c(OCC(O)(C(F)(F)F)C(F)(F)F)c(Br)c1` (stereo not shown) [Example 38, 6-{3-Bromo-5-fluoro-4-[3,3,3-trifluoro-2-hydroxy-2-(trifluoromethyl)propoxy]phenyl}-5-methyl-4,5-dihydro-2H-pyridazin-3-one], the IC50 worked out at 5.2 nM. On to `Cc1cc(C2=NNC(=O)CC2C)cc(Cl)c1OC[C@H](C)O` (stereo partly drawn) [Example 39, 6-{3-Chloro-4-[(2S)-2-hydroxypropoxy]-5-methylphenyl}-5-methyl-4,5-dihydro-2H-pyridazin-3-one], for which the IC50 stood at 2.8 nM. The same measure, in the same setting: as for `Cc1cc(C2=NNC(=O)CC2C)cc(Cl)c1OC[C@@H](C)O` (stereo partly drawn) [Example 40, 6-{3-chloro-4-[(2R)-2-hydroxypropoxy]-5-methylphenyl}-5-methyl-4,5-dihydro-2H-pyridazin-3-one], the figure is 1.6 nM.

Source of the values: patent US10611731B2, “5-methyl-6-phenyl-4,5-dihydro-2H-pyridazin-3-one derivative” (OTSUKA PHARMACEUTICAL CO., LTD., priority 2016, dated 2020).
